In patent US12268665B2, “Combination of immunotherapies with MDM2 inhibitors” (ASCENTAGE PHARMA (SUZHOU) CO., LTD., priority 2018, dated 2025):

Tests used:
[1] = clinical; design: species or system human; details: in vivo
Procedure: Patients with advanced soft tissue sarcoma (STS), adenoid cystic carcinoma (ACC) or other solid tumors in China (CTR20170975) were treated with APG-115. In dose escalation, patients received APG-115 (100-200 mg) orally QOD for first 21 days of a 28-day cycle, until disease progression. Study objectives include safety (primary endpoint), pharmacokinetics (PK), pharmacodynamics (PD), and antitumor activity assessed every 8 weeks.
This is a Phase I study (CTR20170975) is designed to assess the safety, dose-limiting toxicities (DLT), the maximum tolerated dose (MTD)/recommended phase 2 dose (RP2D), pharmacokinetics (PK), pharmacodynamics (PD) profile and anti-tumor activity of orally administered APG-115 in Chinese patients with advanced soft tissue sarcoma and other solid tumors.

[2] = system: tumor infiltrating cells in MC38 tumors; test: TIL analysis by flow cytometry, p53mut MC38 tumors; format: in vivo
Procedure: The live/dead fixable dye (Invitrogen) was used to exclude dead cells. The FOXP3 kit from eBioscience was used for FOXP3 staining. Cells were washed and stained for 30 min on ice with indicated antibodies in MACS buffer or Brilliant staining buffer. Samples were than analyzed on Life Technology Attune NxT flow cytometer.

[3] = system: MH-22A murine hepatoma syngeneic model; test: In vivo efficacy study in MH-22A model; design: species or system mouse; details: for RTV (Mean ± SEM) d15 / T/C (%) d15: anti-PD-1 10 mg/kg i.p. biw; for Response rate (%) d15: anti-PD-1 10 mg/kg, n=10
Procedure: Tumor volumes were measured twice weekly in two dimensions using a caliper, and the volume was expressed in mm^3 using the formula: Tumor Volume(mm^3)=0.5a×b^2 where a and b are the long and short diameters of the tumor, respectively.
Relative tumor volume (RTV) was calculated using the following formula: RTV=Vt/V1 Where V1 and Vt are the average tumor volumes on the first day of treatment (day 1) and the average tumor volumes on a certain time point (day t).
Synergy score was calculated using the following formula (Clarke R, Breast Cancer Research & Treatment, 1997, 46(2-3):255-278): Synergy score=((A/C)×(B/C))/(AB/C); A: response to treatment A; B: response to treatment B; C: response to vehicle control; AB: combination of treatment A and B.
Standard NCI procedures were used to calculate tumor parameters. Percent tumor growth inhibition (% T/C) was calculated as the mean RTV of treated tumors (T) divided by the mean RTV of control tumors (C)×100%. The percentage T/C value is an indication of antitumor effectiveness: a value of T/C<42% is considered significant antitumor activity by the NCI. A T/C value <10% is considered to indicate highly significant antitumor activity, and is the level used by the NCI to justify a clinical trial if toxicity and certain other requirements are met (termed DN-2 level activity). A body weight loss nadir (mean of group) of greater than 20%, or greater than 20% of drug deaths are considered to indicate an excessively toxic dosage.
(§1) Each mouse was inoculated subcutaneously at the right flank region with MH-22A tumor cells (5×10^6) in 0.2 mL of PBS for tumor development. The treatments were initiated when the mean tumor size reached ˜65 mm^3. The test articles were administered to the tumor-bearing mice according to the regimen shown in the experimental design Table 3. The day of start dosing was defined as d1.

[4] = system: MH-22A syngeneic tumor model; test: Efficacy in the TIL analysis study, MH-22A model (d7); format: in vivo, mouse; details: APG-115 10 mg/kg p.o. q2d; anti-PD-1 5 mg/kg i.p. biw; epacadostat 100 mg/kg p.o. bid; × 6 d
Procedure: as §1, with “were started” for “were initiated”, “reached 60” for “reached ˜65”, “Table 6.” for “Table 3.”
Mice bearing MH-22A murine hepatoma tumors were treated with various agent(s) under different regimens as indicated. Isotype control antibody was included in the control.

[5] = system: MH-22A cells; test: PD-L1 expression on tumor cells (Western blotting, flow cytometry); format: cell-based, mouse; details: 72 h
Procedure: Transcription factor p53 is involved in the regulation of PD-L1 expression (Cortez M A, 2015), which might serve as an indicator of the efficacy of anti-PD-1/PD-L1 treatment. Besides the effects on T cells, how APG-115 effects PD-L1 expression on MH-22A tumor cells was also investigated in vitro.
MH-22A cells were treated with indicated doses of APG-115 for 72 h. The expression levels of MDM2, p53, total STAT3 (t-STAT3), phosphorylated STAT3 (p-STAT3), PD-L1, and β-actin (loading control) expression were determined by Western blotting. PD-L1 expression levels which were reflected by fluorescence intensity were determined by flow cytometry.

[6] = APG-115 10 mg/kg p.o. qd, epacadostat 100 mg/kg p.o. bid

SMILES: CCN1[C@@H](C(=O)NC23CCC(C(=O)O)(CC2)CC3)[C@H](c2cccc(Cl)c2F)[C@]2(C(=O)Nc3cc(Cl)ccc32)C12CCCCC2 [APG-115]
- Tmax ([1]; human): 4 to 6 h
- AUC and Cmax versus dose [1]: generally increase dose proportionally
- Cmax and AUC0-t versus dose ([1]; po): approximately dose proportional increase
- CD4+ T cells, NK cells, MDSCs, and regulatory T (Treg) cells [2]: no significant changes
- RTV (Mean ± SEM) d15 [3, 6]: 37.8 ± 6.8
- T/C (%) d15 [3, 6]: 98%
- Response rate (%) d15 ([3]; APG-115 10 mg/kg, epacadostat 100 mg/kg): 0%
- RTV (Mean ± SEM) d15 ([3]; APG-115 50 mg/kg p.o. qd): 36.2 ± 8.7
- T/C (%) d15 ([3]; APG-115 50 mg/kg p.o. qd): 94%
- Response rate (%) d15 ([3]; APG-115 50 mg/kg): 0%
- antitumor activity as single agents ([3]; APG-115 10 and 50 mg/kg, epacadostat 100 mg/kg): did not exert antitumor activity
- RTV (Mean) d7 [4]: 12.8
- T/C (%) d7 [4]: 83%
- expression of TP53 and pSTAT3 proteins ([5]; Western blotting): upregulated in a dose-dependent manner
- surface expression of PD-L1 ([5]; flow cytometry): dose-dependent increase
